Data: ChEMBL document CHEMBL1135986, “Corrigendum to Synthesis and anti-angiogenic activity of 6-(1,2,4-thiadiazol-5-yl)-3-amino pyridazine derivatives [Bioorg. Med. Chem. Lett. 12 (2002) 589]” (Bioorg Med Chem Lett, 2002)

Columns and labels:
Mus musculus = experiment: In vivo percentage inhibition of 3LL Lewis Lung tumor mets formation were measured after oral dosing b.i.d. for 28 days to B6D2F1 mice at a dose of 15 mg/kg b.i.d; type: functional; settings: 672 h
[1] = Ocular toxicity was assessed after oral dosing at 40 mg/Kg b.i.d. for 4 days in male Wistar rats; No; settings: rat, in vivo, 96 h
[2] = Ocular toxicity was assessed after oral dosing at 40 mg/Kg b.i.d. for 4 days in male Wistar rats; Yes; settings: rat, in vivo, 96 h
[3] = Ocular toxicity was assessed after oral dosing at 40 mg/Kg b.i.d. for 4 days in male Wistar rats; Very weak; settings: rat, in vivo, 96 h

Compound | inhibition in vivo at 15 mg/kg (Mus musculus) [%] | Eye toxicity [1] | Eye toxicity [2] | further results
CN(C)c1nsc(-c2ccc(N3CCN(c4cc(C(F)(F)F)cc(C(F)(F)F)c4)CC3)nn2)n1 | 13 | No toxicity | – | –
FC(F)(F)c1cccc(NC2CCN(c3ccc(-c4ncns4)nn3)CC2)c1 | 42 | No toxicity | – | –
FC(F)(F)c1cc(N2CCN(c3ccc(-c4ncns4)nn3)CC2)cc(C(F)(F)F)c1 | 24 | No toxicity | – | –
Cc1nsc(-c2ccc(N3CCN(c4cc(Cl)cc(Cl)c4)CC3)nn2)n1 | – | – | Yes | –
Cc1nsc(-c2nccc(N3CCN(c4cccc(C(F)(F)F)c4)CC3)n2)n1 | – | No toxicity | – | –
Cc1nsc(-c2ccc(N3CCN(c4cccc(Cl)c4)CC3)nn2)n1 | – | – | Yes | –
Nc1nsc(-c2ccc(N3CCN(c4cccc(C(F)(F)F)c4)CC3)nn2)n1 | – | No toxicity | – | –
Cc1nsc(-c2ccc(N3CCN(c4cccc(C(F)(F)F)c4)CC3)cc2)n1 | – | No toxicity | – | –
FC(F)(F)c1cccc(N2CCN(C3CCN(c4ccc(-c5ncns5)nn4)CC3)CC2)c1 | 54 | No toxicity | – | –
Cc1nsc(-c2ccc(N3CCN(c4cccc(C(F)(F)F)c4)CC3)nn2)n1 | – | – | Toxicity | –
FC(F)(F)c1cccc(N2CCN(c3ccc(-c4ncns4)nn3)CC2)c1 | – | No toxicity | – | –
CN(C)c1nsc(-c2ccc(N3CCC(N4CCN(c5cccc(C(F)(F)F)c5)CC4)CC3)nn2)n1 | 25 | – | – | Eye toxicity [3]: Very weak toxicity
CNc1nsc(-c2ccc(N3CCN(c4cccc(C(F)(F)F)c4)CC3)nn2)n1 | – | No toxicity | – | –
Cc1nsc(-c2ccc(N3CCN(c4cccc([N+](=O)[O-])c4)CC3)nn2)n1 | – | – | Yes | –
Cc1nsc(-c2ccc(N3CCN(c4ccccc4C(F)(F)F)CC3)nn2)n1 | – | – | Yes | –
CCc1nsc(-c2ccc(N3CCN(c4cccc(C(F)(F)F)c4)CC3)nn2)n1 | – | No toxicity | – | –
Cc1nsc(-c2ccc(N3CCN(c4cc(C(F)(F)F)cc(C(F)(F)F)c4)CC3)nn2)n1 | – | – | Yes | –
CN(C)c1nsc(-c2ccc(N3CCN(c4cccc(C(F)(F)F)c4)CC3)nn2)n1 | 39 | No toxicity | – | –
Cc1nsc(-c2ccc(N3CCN(c4cccc(C(F)(F)F)c4)CC3)nc2)n1 | – | No toxicity | – | –
